Measured values: patent US20180209962A1, “SCREENING METHOD USING INDUCED NEURONS” (KYOTO UNIVERSITY, priority 2014, published 2018)

Columns and labels:
Format in all cases: cell-based
[1] = test system: mouse tauopathy iNs and mouse normal iNs; assay: Action potential / excitatory postsynaptic current of iNs in the presence of glutamate receptor antagonists; conditions: for generation of excitatory postsynaptic current: mouse normal iNs, CNQX and AP-5 administered together; for generation of action potential: mouse tauopathy iNs and mouse normal iNs, AP-5 and CNQX present together
Source text: FIGS. 1A and 1B show results of confirming, by immunostaining (FIG. 1A) or RT-PCR (FIG. 1B), that iPSCs prepared from a transgenic mouse harboring a P301S mutant human MAPT gene (tauopathy mouse), or its non-transgenic litter (normal mouse) express an undifferentiation marker (Esg1, Eras, Nanog, or SSEA1). In FIG. 1B, tauopathy mouse MEFs (MEF) were used as a negative control, and mouse embryonic stem cells (ESCs) were used as a positive control. […] The inserted drawings show enlarged diagrams of neurites.
Accordingly, these iNs were confirmed to be glutamatergic neurons.

human tauopathy iNs [2] = assay: Cell survival rate of human tauopathy iNs; conditions: added at day 16, survival at day 21
Source text: FIGS. 10A and 10B show results of measuring change in intracellular calcium concentration between before and after electric stimulation by use of a calcium imaging method in human tauopathy iNs or human normal iNs of day 12 (FIG. 10A, n=6). The arrows shown in the abscissa represent time points at which the cells were given electric stimulation. The ordinate (ΔF/F) depicts change in the fluorescence intensity of a calcium indicator (Fluo-8/AM) after the stimulation with respect to its baseline fluorescence intensity. FIG. 10B is a graph on which the largest value of the ΔF/F was plotted. […] The upper left panel “pre” depicts the human tauopathy iNs of day 16 before the addition of the reagent.
Next, AP-5 or CNQX was added to the culture system of human tauopathy iNs of day 16, and a cell survival rate at day 21 was calculated. The treatment with any of these agents tended to elevate the cell survival rate.

mouse tauopathy iNs [3] = assay: Dot blot of tau oligomer in culture supernatant and cell extracts of mouse tauopathy iNs; conditions: added at day 5, 48 hours later, final concentration 25 μM
Protocol: (§1) FIG. 7 FIGS. 7A and 7B show results of adding AP-5 (final concentration: 25 μM) or CNQX (final concentration: 25 μM) to mouse tauopathy iNs or mouse normal iNs of day 5, preparing a culture supernatant and cell extracts 48 hours later, and analyzing the amounts of tau and a tau oligomer contained in the culture supernatant and the cell extracts by dot blot (FIG. 7A), and the results of quantifying their signals (FIG. 7B). In FIGS. 7C and 7D, AP-5 or CNQX was added to mouse tauopathy iNs of day 7, and a survival rate at day 10 (=the number of live neurons at day 10/the number of live neurons at day 7)×100) was indicated in a graph.
Cells were recovered from the culture system of iNs, suspended in TBS (Tris buffered saline) containing a protease inhibitor and a phosphatase inhibitor, and then ultrasonicated to homogenize the cells. The cell homogenates were centrifuged (13,000×g, 15 min), and the supernatant was recovered as cell extracts. The cell extracts from the iNs of each type were blotted at 1.2 μg protein/spot onto a nitrocellulose membrane (pore size: 0.45 μm, GE Healthcare Japan Corp.).
Also, a medium was recovered from the cell culture system and subjected to low-speed centrifugation (1,000 rpm, 3 min) to precipitate cellular debris. The obtained supernatant was recovered as a culture supernatant. A 500 μl aliquot of each culture supernatant was transferred to a tube with an ultrafiltration filter (Vivaspin, molecular weight cutoff: 10 kD, GE Healthcare Japan Corp.) and concentrated to 50 μl. 2 μl of each concentrated sample was blotted onto the nitrocellulose membrane.
The nitrocellulose membrane obtained by the method was treated with various tau antibodies according to a standard method, followed by detection (Western Lightning Plus-ECL, PerkinElmer, Inc.) and signal quantification (ImageQuant LAS4000, GE Healthcare Japan Corp.). Tau 12, Tau 5, and TOC1 antibodies were used a human tau-specific antibody, an antibody recognizing human tau and mouse tau, and a tau oligomer-specific antibody, respectively. In Examples of the present application, the TOC1 antibody (Non-Patent Document 13) used was provided by Dr. Nicholas Kanaan from Department of Translational Science and Molecular Medicine, College of Human Medicine, Michigan State University (USA).
(§2) AP-5 or CNQX was added to the culture system of mouse tauopathy iNs of day 5. 48 hours later, a culture supernatant and cell extracts were prepared therefrom, and the amount of a tau oligomer, the amount of human tau, and the total amount of tau were analyzed by dot blot (FIGS. 7A and 7B). Also, AP-5 or CNQX was added to the culture system of mouse tauopathy iNs of day 7. Three days later, a cell survival rate was calculated (FIGS. 7C and 7D).

mouse tauopathy iNs [4] = assay: Cell survival rate of mouse tauopathy iNs; conditions: added at day 7, survival at day 10
Protocol: as §1, §2

human tauopathy iNs [5] = assay: Sucrose density-gradient fractionation, localization of tau oligomer and lipid raft; conditions: tauopathy iNs treated with MbCD, then sucrose density-gradient fractionation, Western blot
Source text: FIGS. 11A and 11B show results of preparing a culture supernatant and cell extracts from human tauopathy iNs or human normal iNs of day 14 and analyzing the amounts of human tau and a tau oligomer contained in the culture supernatant or the cell extracts by use of dot blot (FIG. 11A), and graphs on which their signals were quantified (FIG. 11B).
Lipid raft was biochemically isolated from human tauopathy iNs or human normal iNs and analyzed for its colocalization with a tau oligomer. Specifically, iNs were homogenized using a 29-gauge needle in a buffer containing 1% Lubrol and a protease inhibitor, and the cell homogenates were adjusted to a sucrose concentration of 40%. Then, a 0.7 ml aliquot thereof was fractionated by the sucrose density-gradient centrifugation method. The sucrose density gradient used was steps of 30% (1.4 ml), 27.5% (0.7 ml), 24% (1.4 ml), and 3% […] (5-ml tube), and the centrifugation conditions involved 50,000 rpm, 4° C., and 16 hours using Optima-MAX XP1 (Beckman Coulter, Inc.). After the centrifugation, a 0.7 ml aliquot was recovered from the upper layer to obtain 7 fractions (F1 to F7).
The lipid raft (GM1 ganglioside) was recovered into F2 and F3 of the human normal iNs and contained in F2 and F3 as well as in a small amount in F4 of human tauopathy iNs. The tau oligomer in the tauopathy iNs was contained mainly in F3 and also contained in F2 and F4. […]

human normal iNs [6] = assay: Cell survival rate of human normal iNs after addition of P301S tau monomer or oligomer; conditions: for cell survival rate: two days later
Protocol: FIGS. 13D and 13F show results of adding the tau monomer or the tau oligomer of FIG. 13A to a medium of human normal iNs of day 20 and measuring a spontaneous firing rate using a MEA system (FIG. 13D). The arrows represent the timing at which the tau monomer or the tau oligomer was added. FIG. 13E is a graph indicating the ratio of spike number between before and after the addition.
P301S mutant human tau produced as a recombinant protein was oligomerized by incubation in the presence of heparin. Specifically, 0.5 mg/ml tau protein was incubated at 37° C. for 16 hours in a 10 mM HEPES buffer (pH 7.4) containing 10 μM heparin (Sigma-Aldrich Co. LLC) and 100 mM NaCl (Sahara N. and Takashima A, EMBO J., 26: 5143-52, 2007). Then, the solution was treated at 70° C. for 15 minutes and then subjected to SDS-PAGE and silver staining. As is evident, the tau before the incubation in the presence of the heparin was mostly monomeric and dimeric, whereas the tau after the incubation included a large number of trimeric or larger associates (i.e., tau oligomers). Hereinafter, the tau before the incubation in the presence of the heparin is referred to as a “P301S tau monomer”, and the tau after the incubation is referred to as a “P301S tau oligomer”.
The P301S tau monomer or the P301S tau oligomer was added to the culture system of human normal iNs, followed by cell survival rate analysis two days later.

human normal iNs [7] = assay: Spontaneous firing rate using a MEA system; conditions: final concentration 1 μg/ml
Protocol: iPSCs for neural differentiation were inoculated to a culture dish for the exclusive use of MEA coated with poly-L-lysine and Matrigel, and induced to differentiate into neurons according to the [Approach 2]. At day 8 (mouse iNs) or day 12 (human iNs), extracellular electrical recordings were measured using a multielectrode array system (MEA60, Multi Channel Systems MCS GmbH). Data was obtained using MC_Rack software (extracellular electrical recordings). Offline Sorter ver. 3 (Plexon Inc.) was used in spike analysis. The spikes were sorted and then analyzed using Neuroexplorer software (Nex Technologies, LLC).
A culture supernatant of human tauopathy iNs or human normal iNs of days 12 to 14 was added to human normal iNs of day 20, and a spontaneous firing rate was measured using the MEA system of the [Approach 6]. […] By contrast, in the human normal iNs supplemented with the culture supernatant of the human normal iNs, no increase in spontaneous firing rate occurred substantially (FIGS. 12E and 12F).
The P301S tau monomer or the P301S tau oligomer was added (final concentration: 1 μg/ml) to the culture system of human normal iNs, and a spontaneous firing rate was measured using a MEA system ([Approach 6]). […]

| Molecule | generation of excitatory postsynaptic current [1] | generation of action potential [1] | cell survival rate (human tauopathy iNs [2]; 25 μM) | amount of a tau oligomer contained in the cell extracts (mouse tauopathy iNs [3]) | amount of a tau oligomer contained in the culture supernatant (mouse tauopathy iNs [3]) | cell survival rate (mouse tauopathy iNs [4]) | cell survival rate (human normal iNs [6]; 1 μg/ml) | spontaneous firing rate (human normal iNs [7]) | other results |
| --- | --- | --- | --- | --- | --- | --- | --- | --- | --- |
| N[C@H](CCCP(=O)(O)O)C(=O)O [AP-5, D-(−)-2-amino-5-phosphononpentanoic acid] | suppressed | did not generate action potential | significantly elevated | no significant change | approximately 50 % of the negative control | approximately 2 times the negative control | – | – | cell survival rate (human tauopathy iNs [2]; 12.5 μM): significantly elevated |
| N#Cc1cc2c(cc1[N+](=O)[O-])=NC(=O)C(=O)N=2 [CNQX, 6-cyano-7-nitroquinoxaline-2,3-dione] | suppressed | did not generate action potential | significantly elevated | approximately 70 % of the negative control | approximately 50 % of the negative control | approximately 2 times the negative control | – | – | – |
| Methyl-β-cyclodextrin [MbCD] | – | – | – | – | – | – | – | – | recovery of tau oligomer into lipid raft fractions (human tauopathy iNs [5]): not recovered into F2 to F4 |
| P301S tau monomer: recombinant P301S mutant human tau before the incubation with heparin, mostly monomeric and dimeric | – | – | – | – | – | – | not changed | approximately 120 % of that before the addition | – |
| P301S tau oligomer: recombinant P301S mutant human tau after incubation in the presence of heparin; trimeric or larger associates | – | – | – | – | – | – | significantly decreased | approximately 290 % of that before the addition | cell survival rate (human normal iNs [6]; 0.1 μg/ml): significantly decreased; induction of cell death (human normal iNs [6]; 100 ng/ml): tended to induce cell death, albeit not significant |
